Activity calls are given as the source filed them. The rule behind the calls is not given here.
How the values were obtained:
[1] = target: Histamine H1 receptor (Homo sapiens, UniProt P35367); experiment: Displacement of [3H]Pyrilamine from human histamine H1 receptor
[2] = target: 5-hydroxytryptamine receptor 2B (Homo sapiens, UniProt P41595); experiment: Displacement of [3H]LSD from human 5HT2B receptor
[3] = target: Muscarinic acetylcholine receptor M4 (Homo sapiens, UniProt P08173); experiment: Displacement of [3H]QNB from human muscarinic M4 receptor
Chain of Muscarinic acetylcholine receptor M4 (P08173 whole entry): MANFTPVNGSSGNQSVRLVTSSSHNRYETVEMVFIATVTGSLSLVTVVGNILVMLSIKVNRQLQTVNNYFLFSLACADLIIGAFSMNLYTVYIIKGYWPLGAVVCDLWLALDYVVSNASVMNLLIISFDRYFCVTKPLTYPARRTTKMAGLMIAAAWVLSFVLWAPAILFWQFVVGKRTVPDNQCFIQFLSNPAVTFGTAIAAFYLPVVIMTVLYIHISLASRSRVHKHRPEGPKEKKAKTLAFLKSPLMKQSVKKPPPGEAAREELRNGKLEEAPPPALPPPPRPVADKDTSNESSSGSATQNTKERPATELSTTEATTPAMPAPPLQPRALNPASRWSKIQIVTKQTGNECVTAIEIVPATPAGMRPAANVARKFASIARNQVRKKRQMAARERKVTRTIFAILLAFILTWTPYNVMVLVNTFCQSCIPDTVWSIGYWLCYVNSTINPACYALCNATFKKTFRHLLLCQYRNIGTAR

[4] = target: Beta-1 adrenergic receptor (Homo sapiens, UniProt P08588); experiment: Displacement of [125I]Iodopindolol from human adrenergic beta-1 receptor
[5] = target: Sodium-dependent dopamine transporter (Homo sapiens, UniProt Q01959); experiment: Displacement of [3H]WIN-35428 from human DAT
[6] = Displacement of [3H]DTG from human sigma 2 receptor
[7] = target: Mu-type opioid receptor (Homo sapiens, UniProt P35372); experiment: Displacement of [3H]DAMGO from human MOR
[8] = target: Muscarinic acetylcholine receptor M2 (Homo sapiens, UniProt P08172); experiment: Displacement of [3H]QNB from human muscarinic M2 receptor
Chain of Muscarinic acetylcholine receptor M2 (P08172 whole entry): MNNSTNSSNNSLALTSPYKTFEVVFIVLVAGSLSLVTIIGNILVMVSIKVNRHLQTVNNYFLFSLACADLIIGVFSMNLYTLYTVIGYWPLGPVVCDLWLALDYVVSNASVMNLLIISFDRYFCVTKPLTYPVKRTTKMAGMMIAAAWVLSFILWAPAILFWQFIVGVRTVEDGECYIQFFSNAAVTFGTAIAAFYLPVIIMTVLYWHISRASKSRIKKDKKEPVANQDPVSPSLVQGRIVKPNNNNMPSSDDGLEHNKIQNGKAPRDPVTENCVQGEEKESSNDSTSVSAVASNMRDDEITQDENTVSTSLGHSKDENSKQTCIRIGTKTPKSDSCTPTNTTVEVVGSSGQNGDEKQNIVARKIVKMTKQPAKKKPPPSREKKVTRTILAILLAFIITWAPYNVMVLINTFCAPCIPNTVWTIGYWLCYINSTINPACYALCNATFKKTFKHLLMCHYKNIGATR

[9] = target: Sodium-dependent serotonin transporter (Homo sapiens, UniProt P31645); experiment: Displacement of [3H]Citalopram from human SERT
[10] = target: Muscarinic acetylcholine receptor M3 (Homo sapiens, UniProt P20309); experiment: Displacement of [3H]QNB from human muscarinic M3 receptor
Chain of Muscarinic acetylcholine receptor M3 (P20309 whole entry): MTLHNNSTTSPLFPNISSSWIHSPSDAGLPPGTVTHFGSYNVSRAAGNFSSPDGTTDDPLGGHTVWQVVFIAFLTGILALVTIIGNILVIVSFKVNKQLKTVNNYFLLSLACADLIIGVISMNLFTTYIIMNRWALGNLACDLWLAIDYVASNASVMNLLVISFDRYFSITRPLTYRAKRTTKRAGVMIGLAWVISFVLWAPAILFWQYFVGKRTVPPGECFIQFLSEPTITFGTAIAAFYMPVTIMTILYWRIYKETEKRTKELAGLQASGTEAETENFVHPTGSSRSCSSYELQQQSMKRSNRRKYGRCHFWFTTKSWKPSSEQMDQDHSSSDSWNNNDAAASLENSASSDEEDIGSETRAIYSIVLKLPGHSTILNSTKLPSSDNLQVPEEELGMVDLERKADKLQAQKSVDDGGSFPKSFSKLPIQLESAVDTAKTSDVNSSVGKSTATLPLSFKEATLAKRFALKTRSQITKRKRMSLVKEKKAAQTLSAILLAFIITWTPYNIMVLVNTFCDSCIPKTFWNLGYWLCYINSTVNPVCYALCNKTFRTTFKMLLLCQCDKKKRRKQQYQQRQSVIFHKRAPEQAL

[11] = target: Histamine H2 receptor (Homo sapiens, UniProt P25021); experiment: Displacement of [3H]Tiotidine from human histamine H2 receptor
[12] = target: Delta-type opioid receptor (Homo sapiens, UniProt P41143); experiment: Displacement of [3H]DADLE from human DOR
[13] = target: Beta-2 adrenergic receptor (Homo sapiens, UniProt P07550); experiment: Displacement of [125I]Iodopindolol from human adrenergic beta2 receptor
Chain of Beta-2 adrenergic receptor (P07550 whole entry): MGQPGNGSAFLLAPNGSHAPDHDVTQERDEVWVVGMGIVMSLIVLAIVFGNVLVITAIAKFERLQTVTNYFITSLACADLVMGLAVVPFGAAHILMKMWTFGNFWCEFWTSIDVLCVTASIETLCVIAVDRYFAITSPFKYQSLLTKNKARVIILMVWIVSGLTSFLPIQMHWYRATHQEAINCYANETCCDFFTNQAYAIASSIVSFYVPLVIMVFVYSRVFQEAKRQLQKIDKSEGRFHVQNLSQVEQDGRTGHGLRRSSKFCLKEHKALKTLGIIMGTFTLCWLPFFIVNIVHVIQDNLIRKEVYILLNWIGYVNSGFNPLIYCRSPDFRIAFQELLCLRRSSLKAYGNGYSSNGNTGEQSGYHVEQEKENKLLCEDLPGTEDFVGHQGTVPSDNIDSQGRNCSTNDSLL

[14] = target: 5-hydroxytryptamine receptor 7 (Homo sapiens, UniProt P34969); experiment: Displacement of [3H]LSD from human 5HT7 receptor
[15] = target: Beta-3 adrenergic receptor (Homo sapiens, UniProt P13945); experiment: Displacement of [125I]Iodopindolol from human adrenergic beta3 receptor
[16] = target: Alpha-2C adrenergic receptor (Homo sapiens, UniProt P18825); experiment: Displacement of [3H]Clonidine from human adrenergic Alpha-2C receptor
Chain of Alpha-2C adrenergic receptor (P18825 whole entry): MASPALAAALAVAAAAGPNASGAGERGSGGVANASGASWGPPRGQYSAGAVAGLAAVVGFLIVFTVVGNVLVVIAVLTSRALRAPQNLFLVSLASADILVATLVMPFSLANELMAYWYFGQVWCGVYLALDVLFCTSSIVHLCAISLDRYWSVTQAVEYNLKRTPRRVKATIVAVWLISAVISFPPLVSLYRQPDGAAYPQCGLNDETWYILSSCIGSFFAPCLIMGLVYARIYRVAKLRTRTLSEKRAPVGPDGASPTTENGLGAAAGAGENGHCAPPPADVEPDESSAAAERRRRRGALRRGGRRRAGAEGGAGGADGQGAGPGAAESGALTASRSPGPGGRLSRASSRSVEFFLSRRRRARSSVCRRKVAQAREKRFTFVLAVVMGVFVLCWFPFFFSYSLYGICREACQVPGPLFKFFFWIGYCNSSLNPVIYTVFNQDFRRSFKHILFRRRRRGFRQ

[17] = target: Muscarinic acetylcholine receptor M1 (Homo sapiens, UniProt P11229); experiment: Displacement of [3H]QNB from human muscarinic M1 receptor
[18] = target: 5-hydroxytryptamine receptor 1E (Homo sapiens, UniProt P28566); experiment: Displacement of [3H]5-HT from human 5HT1E receptor
[19] = target: Alpha-1A adrenergic receptor (Homo sapiens, UniProt P35348); experiment: Displacement of [3H]Prazosin from human adrenergic alpha1A receptor
[20] = target: Alpha-2A adrenergic receptor (Homo sapiens, UniProt P08913); experiment: Displacement of [3H]Clonidine from human adrenergic alpha2A receptor
[21] = target: D(1A) dopamine receptor (Homo sapiens, UniProt P21728); experiment: Displacement of [3H]SCH233930 from human dopamine D1 receptor
[22] = target: Alpha-1D adrenergic receptor (Homo sapiens, UniProt P25100); experiment: Binding affinity to human adrenergic Alpha-1D receptor
[23] = target: 5-hydroxytryptamine receptor 2A (Homo sapiens, UniProt P28223); experiment: Displacement of [3H]Ketanserin from human 5HT2A receptor
[24] = target: 5-hydroxytryptamine receptor 1B (Homo sapiens, UniProt P28222); experiment: Displacement of [3H]GR127543 from human 5HT1B receptor
[25] = target: 5-hydroxytryptamine receptor 1D (Homo sapiens, UniProt P28221); experiment: Displacement of [3H]GR127543 from human 5HT1D receptor
[26] = target: D(2) dopamine receptor (Homo sapiens, UniProt P14416); experiment: Displacement of [3H]N-methylspiperone from human dopamine D2 receptor
[27] = target: Kappa-type opioid receptor (Homo sapiens, UniProt P41145); experiment: Displacement of [3H]U69593 from human KOR
[28] = target: Histamine H4 receptor (Homo sapiens, UniProt Q9H3N8); experiment: Displacement of [3H]Histamine from human histamine H4 receptor
[29] = target: D(3) dopamine receptor (Homo sapiens, UniProt P35462); experiment: Displacement of [3H]N-methylspiperone from human dopamine D3 receptor
Chain of D(3) dopamine receptor (P35462 whole entry): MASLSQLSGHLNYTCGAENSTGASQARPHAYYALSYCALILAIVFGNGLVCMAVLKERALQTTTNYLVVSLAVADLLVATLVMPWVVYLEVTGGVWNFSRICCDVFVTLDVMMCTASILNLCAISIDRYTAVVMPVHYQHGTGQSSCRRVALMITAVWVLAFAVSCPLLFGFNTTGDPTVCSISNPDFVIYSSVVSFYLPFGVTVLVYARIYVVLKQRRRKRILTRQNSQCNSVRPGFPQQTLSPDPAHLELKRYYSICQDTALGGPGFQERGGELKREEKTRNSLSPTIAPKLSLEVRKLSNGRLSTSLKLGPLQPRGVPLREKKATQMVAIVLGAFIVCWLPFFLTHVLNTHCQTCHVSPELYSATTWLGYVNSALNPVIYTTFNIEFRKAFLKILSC

[30] = target: Histamine H3 receptor (Homo sapiens, UniProt Q9Y5N1); experiment: Displacement of [3H]alpha-methylhistamine from human histamine H3 receptor
[31] = target: Sodium-dependent noradrenaline transporter (Homo sapiens, UniProt P23975); experiment: Displacement of [3H]Nisoxetine from human NET
[32] = target: 5-hydroxytryptamine receptor 2C (Homo sapiens, UniProt P28335); experiment: Displacement of [3H]Mesulergine from human 5HT2C receptor
Chain of 5-hydroxytryptamine receptor 2C (P28335 whole entry): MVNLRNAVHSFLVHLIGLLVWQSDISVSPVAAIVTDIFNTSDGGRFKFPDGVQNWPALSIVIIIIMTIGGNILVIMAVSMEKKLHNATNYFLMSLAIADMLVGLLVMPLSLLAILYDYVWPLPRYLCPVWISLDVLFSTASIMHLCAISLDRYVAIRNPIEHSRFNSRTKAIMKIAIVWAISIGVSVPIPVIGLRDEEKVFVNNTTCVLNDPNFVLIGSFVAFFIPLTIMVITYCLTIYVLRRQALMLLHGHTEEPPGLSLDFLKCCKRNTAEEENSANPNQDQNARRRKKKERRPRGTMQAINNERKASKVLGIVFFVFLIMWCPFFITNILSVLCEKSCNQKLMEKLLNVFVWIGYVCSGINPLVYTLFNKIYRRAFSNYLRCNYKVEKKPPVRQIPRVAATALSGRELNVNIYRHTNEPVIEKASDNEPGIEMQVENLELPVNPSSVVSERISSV

[33] = target: D(4) dopamine receptor (Homo sapiens, UniProt P21917); experiment: Displacement of [3H]N-methylspiperone from human dopamine D4 receptor
Chain of D(4) dopamine receptor (P21917 whole entry): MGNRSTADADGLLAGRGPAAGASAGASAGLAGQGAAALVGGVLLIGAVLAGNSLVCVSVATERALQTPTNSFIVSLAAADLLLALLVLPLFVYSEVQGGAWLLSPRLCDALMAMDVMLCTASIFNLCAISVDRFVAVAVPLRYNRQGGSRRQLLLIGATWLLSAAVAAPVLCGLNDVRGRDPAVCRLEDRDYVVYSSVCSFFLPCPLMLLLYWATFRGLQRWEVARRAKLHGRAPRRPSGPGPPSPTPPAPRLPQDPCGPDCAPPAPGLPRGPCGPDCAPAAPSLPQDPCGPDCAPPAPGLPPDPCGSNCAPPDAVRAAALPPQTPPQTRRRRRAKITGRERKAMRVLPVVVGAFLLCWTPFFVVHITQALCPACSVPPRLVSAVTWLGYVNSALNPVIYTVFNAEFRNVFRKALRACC

[34] = target: D(1B) dopamine receptor (Homo sapiens, UniProt P21918); experiment: Displacement of [3H]SCH233930 from human dopamine D5 receptor
[35] = target: 5-hydroxytryptamine receptor 6 (Homo sapiens, UniProt P50406); experiment: Displacement of [3H]LSD from human 5HT6 receptor
Chain of 5-hydroxytryptamine receptor 6 (P50406 whole entry): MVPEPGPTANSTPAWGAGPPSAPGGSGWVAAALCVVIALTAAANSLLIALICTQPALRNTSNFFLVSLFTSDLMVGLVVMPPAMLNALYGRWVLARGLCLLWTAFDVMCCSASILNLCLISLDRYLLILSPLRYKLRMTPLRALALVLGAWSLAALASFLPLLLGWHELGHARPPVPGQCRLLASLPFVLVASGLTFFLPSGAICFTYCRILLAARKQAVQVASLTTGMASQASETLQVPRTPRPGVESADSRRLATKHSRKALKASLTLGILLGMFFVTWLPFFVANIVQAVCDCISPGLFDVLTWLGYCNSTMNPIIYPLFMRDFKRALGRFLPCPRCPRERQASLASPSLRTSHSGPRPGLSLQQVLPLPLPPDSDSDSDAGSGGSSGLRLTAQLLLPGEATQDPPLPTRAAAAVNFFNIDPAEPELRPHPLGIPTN

[36] = target: Alpha-1B adrenergic receptor (Homo sapiens, UniProt P35368); experiment: Displacement of [3H]Prazosin from human adrenergic Alpha-1B receptor
[37] = target: 5-hydroxytryptamine receptor 3A (Homo sapiens, UniProt P46098); experiment: Displacement of [3H]LY278584 from human 5HT3 receptor
[38] = target: 5-hydroxytryptamine receptor 5A (Homo sapiens, UniProt P47898); experiment: Displacement of [3H]LSD from human 5HT5A receptor
Chain of 5-hydroxytryptamine receptor 5A (P47898 whole entry): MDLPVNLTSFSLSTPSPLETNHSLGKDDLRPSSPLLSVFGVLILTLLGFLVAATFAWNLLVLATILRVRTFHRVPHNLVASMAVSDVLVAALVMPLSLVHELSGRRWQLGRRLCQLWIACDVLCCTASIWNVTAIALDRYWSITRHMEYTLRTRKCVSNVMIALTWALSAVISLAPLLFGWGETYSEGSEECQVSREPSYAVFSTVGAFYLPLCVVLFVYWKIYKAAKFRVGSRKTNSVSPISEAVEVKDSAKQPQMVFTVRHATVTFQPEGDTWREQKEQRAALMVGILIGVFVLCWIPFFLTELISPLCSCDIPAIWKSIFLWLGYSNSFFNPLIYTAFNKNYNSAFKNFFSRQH

[39] = target: Alpha-2B adrenergic receptor (Homo sapiens, UniProt P18089); experiment: Displacement of [3H]Clonidine from human adrenergic alpha2B receptor
[40] = system: Rattus norvegicus; experiment: Toxicity in rat at 1 mg/kg, ip after 15 mins; assay type: organism-based; set-up: dose 1 mg/kg, route intraperitoneal; settings: in vivo, 0.25 h
[41] = system: Rattus norvegicus; experiment: Inhibition of MDMA-induced behavioral suppression in rat assessed as earning of 20 food pellets at 0.1 mg/kg, ip administered 15 mins before MDMA challenge by food-reinforced operant task method; assay type: functional, organism-based; set-up: dose 0.1 mg/kg
[42] = system: Rattus norvegicus; experiment: Inhibition of MDMA-induced behavioral suppression in rat assessed as earning of 20 food pellets at 0.3 mg/kg, ip administered 15 mins before MDMA challenge by food-reinforced operant task method; assay type: functional, organism-based; set-up: dose 0.3 mg/kg

Chain of Histamine H1 receptor (P35367 whole entry): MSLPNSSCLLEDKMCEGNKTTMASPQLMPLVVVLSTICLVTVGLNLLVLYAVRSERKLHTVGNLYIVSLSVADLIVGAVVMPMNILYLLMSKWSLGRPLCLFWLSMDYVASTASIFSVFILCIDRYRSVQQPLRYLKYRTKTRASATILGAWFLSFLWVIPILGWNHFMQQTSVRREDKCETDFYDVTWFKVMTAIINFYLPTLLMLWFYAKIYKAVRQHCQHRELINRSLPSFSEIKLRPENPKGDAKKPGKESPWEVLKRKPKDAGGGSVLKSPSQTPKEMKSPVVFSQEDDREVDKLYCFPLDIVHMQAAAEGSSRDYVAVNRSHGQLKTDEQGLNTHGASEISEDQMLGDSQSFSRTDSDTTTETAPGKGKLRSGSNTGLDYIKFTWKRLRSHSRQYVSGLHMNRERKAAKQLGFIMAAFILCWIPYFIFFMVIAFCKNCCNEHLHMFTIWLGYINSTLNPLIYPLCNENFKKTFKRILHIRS

COc1cc2c3c(c1OC)-c1cc4c(cc1CC3N(C)CC2)OCO4 (racemic) [NANTENINE]
Ki [1]: > 10000 nM | Ki [2]: 543 nM | Ki [3]: > 10000 nM | Ki [4]: 8570 nM | Ki [5]: > 10000 nM | Ki [6]: > 10000 nM | Ki [7]: 7260 nM | Ki [8]: > 10000 nM | Ki [9]: 244 nM | Ki [10]: > 10000 nM | Ki [11]: 672 nM | Ki [12]: > 10000 nM | Ki [13]: > 10000 nM | Ki [14]: 67 nM | Ki [15]: > 10000 nM | Ki [16]: 181 nM | Ki [17]: > 10000 nM | Ki [18]: > 10000 nM | Ki [19]: 2 nM | Ki [20]: 1290 nM | Ki [21]: 895 nM | Ki [22]: 340 nM | Ki [23]: 832 nM | Ki [24]: 100 nM | Ki [25]: 49 nM | Ki [26]: 858 nM | Ki [27]: > 10000 nM | Ki [28]: > 10000 nM | Ki [29]: 309 nM | Ki [30]: > 10000 nM | Ki [31]: > 10000 nM | Ki [32]: 1070 nM | Ki [33]: 262 nM | Ki [34]: 2400 nM | Ki [35]: 257 nM | Ki [36]: 1190 nM | Ki [37]: > 10000 nM | Ki [38]: 2220 nM | Ki [39]: 252 nM

O=C(c1ccc(F)cc1)C1CCN(CCn2c(=O)[nH]c3ccccc3c2=O)CC1 [KETANSERIN]
Activity [40]: Toxic | Activity [41]: Active | Activity [42]: Active

— ChEMBL document CHEMBL1153197, “Synthetic studies and pharmacological evaluations on the MDMA ('Ecstasy') antagonist nantenine” (Bioorg Med Chem Lett, 2010)
